According to US20190030009A1, “COMPOUNDS AND COMPOSITIONS FOR THE TREATMENT OF CRYPTOSPORIDIOSIS” (Novartis AG, priority 2016, published 2019):

Assays:
[1] = Cytotoxicity against HepG2; format: cell-based; conditions: human, HepG2 cells (ATCC HB-8065), 5 days exposure
Description: Cytotoxicity against HepG2 (ATCC# HB-8065), a human liver cancer cell line, was determined as previously described earlier (Manjunatha et al., 2015). Briefly, cells were seeded at a density of 10^5 cells per well, incubated at 37° C. for 24 h and exposed to two-fold serially-diluted compounds for 5 days. Cell viability was monitored using the Cell Proliferation Kit II (Invitrogen). The cytotoxicity values of selected compounds are reported in the fifth column [HepG2 CC50 (μM)] of Table II.

Cryptosporidium parvum = assay: Cytopathic effect (CPE) based assay, C. parvum infected HCT-8 cells; conditions: HCT-8 host cell viability (CellTiter-Glo), 48 hours treatment, read-out: Cp CPE EC50
Description: Human ileocecal colorectal adenocarcinoma cells (HCT-8 [HRT-18] ATCC, CCL-34) were maintained in T-175 flasks (Corning, 431080) in complete growth medium (RPMI-1640 medium (Gibco, 11875) supplemented with 10% heat-inactivated horse serum (Gibco, 26050), 1×MEM non-essential amino acids (Gibco, 11140), 10 mM HEPES (Gibco, 15630), 100 units/mL penicillin, and 100 units/mL streptomycin) at 37° C. and 5% CO2 in a humidified incubator. Cultures were passaged twice weekly using 10 mL of 1×Phosphate-Buffered Saline (PBS) without Ca^2+ and Mg^2+ (Gibco, 20012) for washing and 3-5 mL per T-175 flask of TrypLE Express Enzyme (Gibco, 12604) for dissociation of adherent cells.
Cryptosporidium parvum oocysts purchased from the Sterling Laboratory, University of Arizona (Iowa isolate) were purified from infected calf feces using discontinuous sucrose and cesium chloride centrifugation gradients and stored in PBS solution containing 0.01% Tween 20, 100 units/mL penicillin and 100 units/mL gentamicin.
Excystation and infection protocols were developed following established methods with some modifications (Gut & Nelson, 1999, Upton et aL, 1995, Bessoff et aL, 2013). Briefly, oocysts were primed in 1 mL of 10 mM hydrochloric acid in 1× Hank's Balanced Salt Solution (HBSS) (Gibco, 14025) for 10 minutes with agitation at 1000 rpm, 37° C. on an Eppendorf thermomixer, then washed twice with 1 mL of room temperature non-acidic 1× HBSS by centrifugation at 13,000 rpm for 3 minutes at 25° C. Primed oocysts were further excysted at a concentration of 1×10^6 oocysts/μL in parasite infection medium consisting of a pre-warmed and pre-gassed 1:1 formulation of Leibovitz's L-15 medium (Gibco, 11415) and UltraCULTURE medium (Lonza, 12-725F) supplemented with 2 mM sodium taurocholate (Sigma, 86339-1), 10% heat-inactivated horse serum, and 200 μM L-ascorbic acid (Sigma, 95210) at 25° C. for 10 minutes. HCT-8 monolayer cells were infected with excysted cryptosporidium at a specified multiplicity of infection (MOI). All dilutions for subsequent assays were performed in parasite infection medium without sodium taurocholate. Pre-excysted oocysts were enumerated microscopically using a C-Chip disposable hemocytometer (NanoEnTek, DHC-N01).
Compound powders were dissolved in neat DMSO (Fisher, D4121) to 10 mM and stored at 4° C. prior to dilution into source plates. Dilutions were carried out using a Microlab STAR liquid handler (Hamilton) to obtain compound source plates containing the ten-point or eight-point three fold dilutions starting from 10 mM in duplicates. Source plates were stored at 4° C. prior to spotting into assay plates. Before administration, all compound source plates were equilibrated to room temperature. A specified volume of compounds from source plate were spotted to assay plate using an Echo Acoustic liquid handler (LABCYTE, 550) so that the final DMSO concentration was less than 0.5%. Each assay plate a specified number of DMSO-treated negative control wells and a well-studied potent active compound at 100 nM as positive control. As a quality control, all positive and negative-control wells were used to calculate a Z′-value and signal to noise ratio (S:N) for each plate.
Cryptosporidium spp are obligate-intracellular parasites that infect intestinal epithelial cells and the host cell is killed upon parasite egress. […] The loss of epithelial cells is due to both rapid parasite invasion/multiplication/egress and also pro-inflammatory immune response (Adams et al., 1994, Griffiths et al., 1994). We have observed a consistent cytopathic effect (CPE) in HCT-8 cells with C. spp infection the loss of viability of the host cells using CellTiter-Glo reagent.
Confluent HCT-8 cells in T-175 flasks were directly infected with excysted oocysts at an MOI (host to parasite) of 1:2 for C. parvum and 1:4 for C. hominis. The number of host-cells is determined using a NucleoCounter (Chemometec, NC-100) in a control flask. […]

Structure (SMILES) | CC50 at 5 days [1] [µM] | EC50 (Cryptosporidium parvum) [µM]
CN(C(=O)c1ccn2ncc(-c3ccc4c(cnn4C)c3)c2c1)c1ccc(C#N)cc1 [Example 17] | 2.51 | 0.058
CCN(C(=O)c1ccn2ncc(-c3ccc(C(=O)NC)nc3)c2c1)c1ccc(C(F)(F)F)cn1 [Example 157] | 8.96 | 0.295
CNC(=O)c1ccc(-c2cnn3ccc(C(=O)N(c4ccc(C#N)cc4)C4CCC4)cc23)cn1 [Example 145] | 16.8 | 0.417
CNC(=O)c1ccc(-c2cnn3ccc(C(=O)N(C)c4ccc(Cl)cc4)cc23)cn1 [Example 109] | 16.9 | 0.129
CNC(=O)c1ccc(-c2cnn3ccc(C(=O)N(C)c4ccc(Cl)cc4)cc23)cc1 [Example 99] | 6.51 | 0.018
CNC(=O)c1ccc(-c2cnn3ccc(C(=O)N(c4ccc(F)cn4)C(C)C)cc23)cn1 [Example 156] | > 50 | 15.6
CN(C(=O)c1ccn2ncc(-c3ccc(C(=O)O)cc3)c2c1)c1ccc(C#N)cn1 [Example 101] | > 50 | 15.2
CNC(=O)c1ccc(-c2cnn3ccc(C(=O)N(c4ccc(F)c(F)c4)C4CC4)cc23)cc1 [Example 130] | > 50 | 0.235
CN(C(=O)c1ccn2ncc(-c3ccc(C(F)(F)F)cc3)c2c1)c1ccc(C#N)cn1 [Example 13] | > 50 | 1.54
CNC(=O)c1ccc(-c2cnn3ccc(C(=O)N(c4ccc(C#N)cn4)C4CC4)cc23)cc1 [Example 93] | 28.1 | 0.152
CNC(=O)c1ccc(-c2cnn3ccc(C(=O)Nc4ccc(C#N)cn4)cc23)cc1 [Example 106] | > 50 | > 20
CNC(=O)c1ccc(-c2cnn3ccc(S(=O)(=O)N(c4ccc(C#N)cn4)C4CC4)cc23)cc1 [Example 164] | 6.98 | –
CNC(=O)c1ccc(-c2cnn3ccc(C(=O)N(C)c4ccc(C#N)cn4)cc23)cc1 [Example 75] | 19.7 | 0.066
CC1COc2cc(F)ccc2N1C(=O)c1ccn2ncc(-c3ccc(C(N)=O)cc3)c2c1 (centres unmarked) [Example 72] | 5.42 | 1.4
CN(C(=O)c1ccc(C#N)cc1)c1ccn2ncc(-c3ccc(C(F)(F)F)cc3)c2c1 [Example 28] | 9.9 | 2.82
CCN(C(=O)c1ccn2ncc(-c3ccc(S(C)(=O)=O)cc3)c2c1)c1ccc(C#N)cn1 [Example 158] | 23 | 3.75
CN(C(=O)c1ccn2ncc(-c3cnc(N)c(C#N)c3)c2c1)c1ccc(C#N)cn1 [Example 85] | 30.4 | 0.639
CNC(=O)c1ccc(-c2cnn3ccc(C(=O)N(c4ccc(C#N)cn4)C(C)C)cc23)nc1 [Example 154] | 45.7 | 0.964
CNC(=O)c1ccc(-c2cnn3ccc(C(=O)N(c4ccc(C(=O)O)cn4)C4CC4)cc23)cc1 [Example 128] | > 50 | > 20
CNC(=O)c1ccc(-c2cnn3ccc(C(=O)N(c4ccc(C)cn4)C4CC4)cc23)cc1 [Example 136] | 6.32 | 0.43
CCN(C(=O)c1ccn2ncc(-c3ccc(C(=O)NC)cc3)c2c1)c1ccc(C#N)c(OCCO)n1 [Example 162] | 24.4 | –
CNC(=O)c1ccc(-c2cnn3ccc(C(=O)N(c4ccc(C#N)cc4)C4CC4)cc23)nc1 [Example 141] | 20.8 | 0.344
CNC(=O)c1ccc(-c2cnn3ccc(C(=O)N(C)c4ccc(F)cc4)cc23)cc1 [Example 64] | 4.84 | 0.143
CNC(=O)c1ccc(-c2cnn3ccc(C(=O)N(c4ccc(C(F)(F)F)cn4)C4CCC4)cc23)cn1 [Example 161] | 1.22 | 0.775
N#Cc1ccc(N(C(=O)c2ccn3ncc(-c4ccc(C(N)=O)cc4)c3c2)C2CC2)cc1 [Example 134] | 7.24 | 0.042

Structure (SMILES) | CC50 at 5 days [1] [µM] | EC50 (Cryptosporidium parvum) [µM]
CNC(=O)c1ccc(-c2cnn3ccc(C(=O)N(c4ccc(C#N)cn4)C(C)C)cc23)cn1 [Example 148] | 20.1 | 1.86
CN(C(=O)c1ccn2ncc(-c3ccc(C(=O)NC4CCNCC4)cc3)c2c1)c1ccc(C#N)cn1 [Example 113] | 2.67 | 19.4
CN(C(=O)c1ccn2ncc(-c3cnc(Cl)c(NS(C)(=O)=O)c3)c2c1)c1ccc(C#N)cn1 [Example 107] | 39.7 | –
CN(C(=O)c1ccn2ncc(-c3cnc(N)c(Cl)c3)c2c1)c1ccc(C#N)cn1 [Example 86] | – | 0.501
Cc1cc(-c2cnn3ccc(C(=O)N(C)c4ccc(C#N)cc4)cc23)cc(C)c1N [Example 80] | – | 1.17
CN(C(=O)c1ccc(F)cc1)c1ccn2ncc(-c3ccc(C(N)=O)cc3)c2c1 [Example 56] | – | 0.692
CN(C(=O)c1ccc(C(F)(F)F)nc1)c1ccn2ncc(-c3ccc(C(F)(F)F)cc3)c2c1 [Example 37] | – | 3.79
CN(c1ccn2ncc(-c3ccc(C(F)(F)F)cc3)c2c1)S(=O)(=O)c1ccc(C#N)cc1 [Example 30] | – | > 20
CS(=O)(=O)c1ccc(N(CC2CCOCC2)C(=O)c2ccn3ncc(-c4ccc(C(F)(F)F)cc4)c3c2)cc1 [Example 12] | – | 12.6
Cc1ccc(N(C)C(=O)c2ccn3ncc(-c4ccc(C(F)(F)F)cc4)c3c2)nc1 [Example 5] | – | > 20
Fc1ccc(CCc2ccn3ncc(-c4ccc(C(F)(F)F)cc4)c3c2)cc1 [Example 16] | – | > 20
CN(C(=O)c1ccn2ncc(-c3ccc(C(F)(F)F)cc3)c2c1)c1ccc(F)cc1 [Example 4] | – | 6.78
CN(C(=O)c1ccc(Cl)cc1)c1ccn2ncc(-c3ccc(C(F)(F)F)cc3)c2c1 [Example 55] | – | 7.3
COc1ccc(-c2cnn3ccc(C(=O)N(C)c4ccc(C#N)cn4)cc23)nc1 [Example 60] | – | 2.37
CN(C(=O)c1ccn2ncc(-c3ccc(C(F)(F)F)cc3)c2c1)c1ccc(C(F)(F)F)cn1 [Example 33] | – | 1.51
Fc1ccc(SCc2ccn3ncc(-c4ccc(C(F)(F)F)cc4)c3c2)cc1 [Example 21] | – | > 20
Cc1cc(-c2cnn3ccc(C(=O)N(C)c4ccc(C#N)cc4)cc23)cnc1N [Example 81] | – | 0.683
CN(C(=O)c1ccn2ncc(-c3ccc(C(F)(F)F)cn3)c2c1)c1ccc(C#N)cc1 [Example 24] | – | > 20
CNC(=O)c1ccc(-c2cnn3ccc(C(=O)N4CCOc5cc(F)ccc54)cc23)cc1 [Example 73] | – | 0.964
CN(C(=O)c1ccn2ncc(-c3cnc(N)c(C(F)(F)F)c3)c2c1)c1ccc(C#N)cn1 [Example 84] | – | 4.27
CC(=O)Nc1ccc(-c2cnn3ccc(C(C)N(C)c4ccc(C)cn4)cc23)cc1 (centres unmarked) [Example 68] | – | 19.6
CN(C(=O)c1ccn2ncc(-c3ccc(C(F)(F)F)cc3)c2c1)c1ccc(Cl)cc1 [Example 3] | – | 16.5
Cc1ccc(-c2cnn3ccc(C(=O)N(C)c4ccc(C#N)cn4)cc23)nc1 [Example 59] | – | > 20
CNC(=O)c1ccc(-c2cnn3ccc(C(=O)N(C)c4ccc(C#N)cc4)cc23)cc1 [Example 67] | – | 0.026
